Several values for one entry are separate records, joined by “and”; a condition that tells them apart may be missing. Equal entries are not always repeated.
How the values were obtained:
[1] = test system: mice after myocardial infarction; experiment: Myocardial infarction model, permanent LAD ligation (echocardiography, histology, immunostaining, PET, EM); type: in vivo, ICR (CD1) mice
Procedure: Model of heart failure in adult mice. To induce myocardial infarction (MI) in 8- to 10-week-old mice, the left anterior descending (LAD) artery was permanently ligated. Briefly, mice were anesthetized with 2% isoflurane and then intubated. The heart was exposed by performing a thoracotomy through the fourth or fifth intercostal space and an 8-0 nylon suture was tied around the LAD artery. 10 uls of Adenoviral SRC-3 (Ad-SRC-3) or adenoviral GFP (Ad-GFP) at a titre of 9×10^9 pfu/ml was injected into the anterior free wall near left ventricular descending coronary artery. To assess cell cycle entry, the analog 5-ethynyl-2′-deoxyuridine (EdU; 0.2 g/L, Santa Cruz, SC-284628A) was added to the drinking water for the 9 day duration of the experiment. Cell proliferation was measured using Click-iT EdU kit (Invitrogen, C10339). The initial dose of MCB-613 was administered intraperitoneally at 20 mg/kg 2 hours after surgery. Subsequent injections of the same dose were given for 6 additional days, and then repeated doses were given for 3 days at week 9 and week 16. Mice were harvested at indicated time points for analyses.
Echocardiography. Cardiac function was determined by echocardiography (VisualSonics, Vevo 2100, 40 Mhz-550S probe). After alignment in the transverse B-mode with the papillary muscles, cardiac function was measured on M-mode images.
(§1) Histological analysis. Whole hearts were fixed with 10% formalin, embedded in paraffin, and sectioned at 7 μm intervals. Each slide had 3 or 10 sections, which started at the apex and ended at the suture ligation site (approximately 30-50 slides). Sections at the papillary level (slides 20-30) were stained with Picrosirius red to identify areas of fibrosis. Infarct size was determined using a length-based approach.
Immunostaining analysis. Immunohistochemistry and immunofluorescent staining experiments were performed on FFPE (formalin-fixed and paraffin-embedded sections). TUNEL staining to detect apoptotic cells was done using the DeadEnd™ Fluorometric TUNEL System manufacturer's protocol (Promega, GS3250).
Model of heart failure in adult mice. To induce MI in eight- to ten-week-old mice, the left anterior descending (LAD) artery was permanently ligated. Briefly, mice were anesthetized with 2% isoflurane and then intubated. The heart was exposed by performing a thoracotomy through the fourth or fifth intercostal space and an 8-0 nylon suture was tied around the LAD. The initial dose of MCB-613 was administered intraperitoneally at 20 mg/kg, two hours after surgery. Subsequent injection at the same time of the day and same dose were given for six additional days, and then repeated doses were given for three days at week nine and week 16. Mice were harvested at the indicated time points for analyses.
Echocardiography. Cardiac function was determined by echocardiography (VisualSonics, Vevo 2100, 40 Mhz-550S probe). After alignment in the transverse B-mode with the papillary muscles, cardiac function was measured on M-mode images. Animal numbers for cardiac function in FIG. 11A are Day 0 control (17); MCB-613 (15), Day 1 control (10); MCB-613 (12), Day 14 […], Day 56 control (12); MCB-613 (15), Day 70 control (8); MCB-613 (10), Day 80 control (8); MCB-613 (11), Day 133 control (3); and MCB-613 (3).
as §1, with “three (3) to ten (10)” for “3 or 10”, “approach. TUNEL staining to detect apoptotic cells was performed using the DeadEnd™ Fluorometric TUNEL System (Promega, GS3250).” for “approach.”
Electron Microscopy. […]

[2] = test system: GAL4-DBD full length SRC-1, -2 or -3 fusion; experiment: GAL4 luciferase reporter assay in cardiac fibroblasts; type: cell-based, mice; settings: 6 μM, SRC-3 vs SRC-1 and SRC-2
Procedure: Reporter assay. Cardiac fibroblasts were plated in six well plates and transfected with a GAL4 responsive luciferase reporter (pG5-luc) and expression vectors for a GAL4 DNA binding domain (GAL4-DBD) full length SRC-1, -2 or -3 fusion construct (pBIND-SRC-1, pBIND-SRC-2 or pBIND-SRC-3) or pBIND control using Lipofectamine 3000 (Invitrogen; Carlsbad, CA). Twenty-four (24) hours post transfection, cells were treated with 6 μM MCB-613 or dimethyl sulfoxide (DMSO) and incubated overnight. Post treatment cells were lysed and total protein was isolated using the Promega luciferase assay system (Promega Life Sciences; Madison, WI). Protein concentration was measured using a Bradford assay (Bio-Rad Laboratories; Hercules, CA). Relative light units were measured and normalized to total protein concentration.

[3] = test system: chorioallantoic membrane (CAM) of chicken eggs; experiment: CAM angiogenesis assay with drug treated mouse embryonic fibroblasts; type: in vivo; settings: MEFs pre-treated with 0.6 μM for 24 hours
Procedure: Angiogenesis Assay with drug treated mouse embryonic fibroblasts (MEFs). Five to seven day old SPF certified fertilized chicken eggs (white leghorn) were used to access the chorioallantoic membrane (CAM). Mouse embryonic fibroblasts (MEFs) were treated with 0.6 μM MCB-613 for 24 hours. Post treatment, two million MEFs were suspended in 60 μL of PBS containing magnesium and calcium and 40 μL of Matrigel (2M/egg) (Corning Inc.; Corning, NY). The MEFs were then mixed well by pipetting and transferred to the surface of the CAM. The vessel area on the CAM was monitored on a daily basis. Vehicle controls were maintained throughout the experiment. MEFs were allowed to grow on the CAM surface for four days at the end of which an image thresholding method (ImageJ) was used to quantify total vessel area on the CAM. Percent growth in vessel area was then compared across control and treated eggs (MEF treated versus untreated). n=6 eggs per condition.

[4] = test system: mice after myocardial infarction; experiment: Progressive maximal exercise test, indirect calorimetry (VO2, VCO2); type: in vivo; settings: three weeks post-MI
Procedure: RER, VO2 and VCO2 measurements. Respiratory exchange ratio (RER), oxygen consumption (VO^2) and carbon dioxide expiration (VCO2) were measured by indirect calorimetry using a progressive maximal exercise test until mice reached exhaustion.
RER, VO2 and VCO2 measurements. RER, VO2 and VCO2 were measured by indirect calorimetry using a progressive maximal exercise test until mice reached exhaustion.

[5] = test system: mouse hearts after myocardial infarction; experiment: Metabolomic profiling of hearts post-MI; type: in vivo, mice
Procedure: Metabolomic profiling. Hearts from 4 control and 4 MCB-613-treated mice were isolated 24 hours post-MI, perfused with 10 mM KCl, snap frozen in liquid nitrogen and stored at −80° C. 10 mgs of tissue was analyzed for fatty acids and carnitines normalized to 3 normal liver control samples. Fatty acids were normalized by Internal Standard L-Tryptophan and carnitines normalized by Internal Standard L-Zeatine.

CCC1C/C(=C\c2cccnc2)C(=O)/C(=C/c2cccnc2)C1 (centres unmarked) [MCB-613]
18F-FDG uptake in infarct zone (cardiac PET) ([1]; 2 weeks post-MI): Improved ^18F-FDG uptake in the infarct zone | infarct size vs saline control ([1]; 10 weeks post-MI, picrosirius red): decrease in infarct size | heart weight (vs tibia length), cardiomegaly ([1]; 12 weeks post-MI): attenuated the MI-induced cardiomegaly compensatory response | cardiomyocyte size and fibrosis in infarct border zone ([1]; 12 weeks post-MI, Picrosirius red): cardiomyocytes were smaller and associated with less fibrosis in the infarct border zone | infarct size (Picrosirius red, % length) ([1]; 12 weeks post-MI, individual hearts, control 31% and 44%): 3% and 14% and 20% and 22% | apoptosis (TUNEL) ([1]; 24 hours post-MI): prevents apoptosis | average ejection fraction ([1]; 24 hours post-MI, 20 mg/kg ip two hours post-MI, control 30%): 43% | LYZ1 granule expression in myocardium ([1]; 24 hours post-MI, vs control): LYZ1 granule expression was significantly increased | myofibrillar and mitochondrial structure (electron micrographs) ([1]; 72 hours post-MI): prevent disorganization of myofibrillar structure and abnormal mitochondrial cristal architecture | ejection fraction maintained ([1]; from 24 hours until 19 weeks post-MI, 20 mg/kg ip 2 h post-MI and six additional days): above 40% | angiogenesis in infarct border zone (CD31 immunostain) ([1]; three days post-MI, treated two hours post-MI): Increased angiogenesis was observed in the infarct border zone | SRC activation (luciferase, RLU) [2]: induced in response to MCB-613 to a greater extent than for SRC-1 and SRC-2 | angiogenesis (vessel area on CAM) [3]: promoted robust angiogenesis | VCO2 and VO2 during exercise [4]: VCO2 and VO2 are elevated | cardioprotective carnitine metabolites ([5]; mouse hearts 24 hours post-MI): increases cardioprotective carnitine metabolites | β-oxidation of long-chain fatty acids ([5]; mouse hearts 24 hours post-MI): increases β-oxidation of long-chain fatty acids | methylglutaryl carnitine ([5]; mouse hearts post-MI): decreases methylglutaryl carnitine

Reference: patent US12338229B2, “Small molecule stimulators of steroid receptor coactivator-3 and methods of their use as cardioprotective and/or vascular regenerative agents” (BAYLOR COLLEGE OF MEDICINE, priority 2018, dated 2025)
